Data: US20180092883A1, “PHOSPHATASE INHIBITORS FOR TREATING OCULAR DISEASES” (Aerpio Therapeutics, Inc., priority 2010, published 2018)

System: Rhodopsin/VEGF transgenic mice
Assay: Retinal/subretinal neovascularization in rho/VEGF transgenic mice (Study 3; GSA lectin, image analysis)
Format: in vivo, mouse
Conditions: s.c. b.i.d. for 7 days, 3 mg/kg/dose, vs vehicle
Method: Thirty (30) Rhodopsin/VEGF transgenic mice having constitutive expression of VEGF in their retinal neurons were divided into three equal groups. At day 14 post natal each group received subcutaneous injections as follows: Group 1 received 10 mg/kg/injection (high dose) of a compound from Table XXI; Group 2 received 3 mg/kg/injection (low dose) of a compound from Table XXI; and Group 3 received injections of vehicle. Each animal received two injections per day for 7 days.
At P21, mice were sacrificed; eyes were harvested and fixed in 10% PBS-buffered formalin for 2 hours at room temperature. […] After 3 washes with PBST, retinas were mounted and imaged by fluorescence microscopy. Areas of retinal neovascularization were assessed using image analysis software (ImagePro Plus 5). […]
Transgenic mice in which the rhodopsin promoter drives expression of VEGF in photoreceptors (rho/VEGF mice) have onset of VEGF expression at P7 and starting at P10 develop sprouts of neovascularization from the deep capillary bed of the retina that grow through the photoreceptor layer and form an extensive network of new vessels in the subretinal space. […] FITC conjugated GSA was used to stain the retinas at room temperature for 2 hours and then the retinas were flat mounted with the photoreceptor side up and examined by fluorescence microscopy. […]

Structure (SMILES): COC(=O)N[C@@H](Cc1ccccc1)C(=O)N[C@@H](Cc1ccc(NS(=O)(=O)O)cc1)c1csc(-c2cccs2)n1 [D91]
- neovascular tufts / new blood vessels in the retina at P21 (micrograph FIG. 3B): marked reduction of neovascular tufts
